Experimental data reported in patent EP0489933A1, “BILE ALCOHOL AND DRUG CONTAINING THE SAME AS ACTIVE INGREDIENT” (TSUMURA CO., LTD., priority 1990, dated 1992).
Where two headings read alike, the source gives them in different places.

Key:
[1] = system: male mice of ddY line; experiment: Survival time under hypoxia (aeration with 96% nitrogen and 4% oxygen); format: in vivo; conditions: 50 mg/kg, i.p., 60 minutes before aeration with 96% nitrogen and 4% oxygen; time to respiratory arrest
Description: In this experiment, 5 to 6-week-old male mice of ddY line (10 individuals per one group) were used after fasting treatment for 24 hours.
Each compound obtained in the present invention was administered intraperitoneally. After 60 minutes of the administration, each mouse was transferred separately into a transparent vessel (capacity, 1,000 ml) equipped with an air exit, and the vessel was aerated with a mixed gas consisting of 96% nitrogen and 4% oxygen at an aeration rate of 5 ℓ/min.
All tested mice died within 180 seconds after the commencement of the gas mixture aeration. Terminal respiration was observed several times prior to the respiratory arrest. Survival time of the control group was roughly in the range of from 96 to 111 seconds.

[2] = system: male mice of ddY line; format: in vivo; conditions: 50 mg/kg, i.p., 60 minutes before KCN (3.0 mg/kg) tail intravenous injection; for Survival Time ±S.E.: time to respiratory arrest
[3] = system: red blood cells; experiment: Inhibition of thermal hemolysis of red blood cells; format: cell-based, donryu rats; conditions: 53°C for 20 minutes; for inhibition at 10 µM / inhibition at 50 µM / inhibition at 100 µM / inhibition at 200 µM / inhibition at 500 µM: Rattus norvegicus, Erythrocyte, 20 min, read-out: Hemolysis Inhibition Ratio (%) against Control
Description: Blood was collected from donryu rats of 150 to 200 g in body weight and centrifuged at 1,500 rpm for 5 minutes to obtain red blood cells. The red blood cells thus collected were diluted with 0.15 M phosphate buffer (pH 7.4) to prepare a 5% red blood cell suspension. A 3.8 ml portion of the thus prepared suspension was mixed with 0.2 ml solution of each compound of the present invention which has been adjusted to each level of the concentrations as shown in the following table, and the resulting mixture was shaken thoroughly and incubated at 53°C for 20 minutes. Thereafter, the thus incubated mixture was cooled rapidly with tap water and centrifuged at 3,000 rpm for 15 minutes, and absorbance at 540 nm of the resulting supernatant fluid was measured using a spectrophotometer (Hitachi: Type 200-20). Inhibition rate (%) of red blood cell hemolysis at each concentration of the compound was calculated based on the absorbance, with the results shown in Table 8.

[4] = system: rats of diabetes mellitus; experiment: Blood sugar level in streptozotocin-induced diabetes mellitus; format: in vivo, male rats of Wistar line; conditions: 50 mg/kg, i.o.; administered for 1 week beginning 1 week after streptozotocin (40 mg/kg); serum
Description: In this experiment, 8-week-old male rats of Wistar line (5 individuals per one group) were used after rearing them for 1 week with normal feed. Streptozotocin (40 mg/kg) was administered by tail intravenous injection to obtain rats of diabetes mellitus. Beginning after 1 week of the streptozotocin administration, oral administration of each test drug has been carried out for 1 week, followed by 24 hours of fasting. Thereafter, blood sample was collected from lower abdominal vena cava under anesthesia with Nembutal® (1 ml/kg, i.p.). Serum samples were prepared from the thus collected blood samples and checked for their blood sugar levels, with the results shown in Table 9.

[5] = system: male rats of SHR line; experiment: Blood pressure in SHR rats; format: in vivo; conditions: 10 mg/kg, p.o., 2 weeks
Description: In this experiment, 12-week-old male rats of SHR line (5 to 6 individuals per one group) were used after rearing them for 1 week with normal feed. Oral administration of each test drug has been carried out for 2 weeks and then blood pressure (mmHg) was measured using a small animal hemomanometer (UR-1000).

[6] = system: erythrocytes; experiment: Erythrocyte deformability (filtration through 5 µm filter) after oral administration; format: in vivo, male rats of Wistar line; conditions: 30 mg/kg, p.o.; blood collected 90 minutes after administration; number of filtered erythrocytes
Description: In this experiment, 9-week-old male rats of Wistar line (5 to 6 individuals per one group) were used after rearing them for 1 week with normal feed. After 24 hours of fasting, each test drug was administered orally and, 90 minutes thereafter, blood sample was collected from lower abdominal vena cava of each rat under anesthesia with Nembutal® (1 ml/kg, i.p.). Blood samples obtained in this way were checked for their blood clotting time and erythrocyte deformability.
Measuring procedures are as follows.
Erythrocyte deformability ... The collected blood is extruded from a syringe with a constant flow of He in a holder equipped with a filter (5 µm). Weight of blood and the number of erythrocytes filtered during a fixed time are measured and the deformability is expressed based on the number of filtered erythrocytes. The results of these measurements are shown respectively in Tables 11 and 12.

[7] = system: male SD rats; experiment: Thrombus formation in abdominal vena cava; format: in vivo; conditions: 30 mg/kg, p.o.; dry weight of thrombus
Description: Each of male SD rats of 130 to 210 g in body weight was anesthetized with Nembutal® (50 mg/kg, i.p.) and subjected to median incision ventrotomy to release about a 2 cm portion of abdominal vena cava below the renal vein. Blood flow of the thus released vena cava was temporarily stopped for 5 minutes with 8 hemostatic clips. After recirculating blood for 5 minutes by removing the hemostatic clips, […] was ligated at a position just below the renal vein and the median-incised part was sutured. Two hours after the ligature, the thus treated rat was again subjected to ventrotomy to excise abdominal vena cava. The thus excised blood vessel was cut open on a filter paper which had been moistened with physiological saline, in order to take out thrombus. The thrombus thus obtained was washed with physiological saline to remove adhered blood and the like substances and then dried at 80°C for 12 hours or longer to measure its dry weight. In this instance, each drug to be tested was orally administered 90 minutes before the clipping to examine its effect by single administration on the formation of thrombus. Separately from this, each test drug was administered to 6-week-old male SD rat continuously for 7 days, thrombus was prepared in the eighth day in the same manner as described above and dry weight of the thrombus was measured, in order to examine effect of the continuous 7 day administration on the thrombus formation.

[8] = system: platelet rich plasma (PRP); experiment: Platelet aggregation in platelet rich plasma after oral administration; format: in vivo, male rat; conditions: 30 mg/kg, p.o., blood 90 minutes after administration
Description: Each drug to be tested was orally administered to each male rat which has been subjected to fasting treatment for 18 to 24 hours. After 90 minutes of the administration, median incision ventrotomy was carried out under ether anesthesia to collect 9 volumes of blood using a syringe filled with 1 volume of 3.8% sodium citrate solution (3.8% sodium citrate solution:blood = 1:9). After thorough mixing, the thus prepared mixture was centrifuged at 800 rpm for 10 minutes at room temperature to collect the resulting supernatant fluid as platelet rich plasma (PRP). The residual portion was centrifuged at 3,000 rpm for 15 minutes at room temperature to collect the resulting supernatant fluid as platelet poor plasma (PPP). The PRP was diluted with the PPP to adjust the number of platelets to 3×10⁵ ± 2×10⁴ cells/µl. A 450 µl portion of the thus diluted PRP was incubated at 37°C for 3 minutes and then mixed with 50 µl of 1×10⁻⁵ M of ADP or 1×10⁻⁵ g/ml of collagen. Thereafter, platelet aggregation test of the mixture was carried out using an aggregometer by measuring transmittance at 940 nm.

SMILES	Survival Time ±S.E. [1] [s]	Lethality (%) [2] [%]	Survival Time ±S.E. [2] [s]	Hemolysis Inhibition Ratio (%) against Control ([3]; 0.01 mM) [%]	Hemolysis Inhibition Ratio (%) against Control ([3]; 0.05 mM) [%]	Hemolysis Inhibition Ratio (%) against Control ([3]; 0.1 mM) [%]	Hemolysis Inhibition Ratio (%) against Control ([3]; 0.2 mM) [%]	Hemolysis Inhibition Ratio (%) against Control ([3]; 0.5 mM) [%]	Blood Sugar Level ± S.E. [4] [mg/dL]	Blood Pressure ±S.E. Average [5] [mmHg]	Blood Pressure ±S.E. Maximum [5] [mmHg]	Erythrocyte Deformation: Erythrocyte counts ±S.E. [6] [× 10⁷]	Antithrombotic Effect: Thrombus weight ±S.E. [7] [mg]	Platelet Aggregation Ratio ±S.E. ([8]; ADP (1×10⁻⁵ M)) [%]	Platelet Aggregation Ratio ±S.E. ([8]; Collagen (1×10⁻⁵ g/ml)) [%]	inhibition at 10 µM ([3]; 0.01 mM) [%]	inhibition at 50 µM ([3]; 0.05 mM) [%]	inhibition at 100 µM ([3]; 0.1 mM) [%]	inhibition at 200 µM ([3]; 0.2 mM) [%]	inhibition at 500 µM ([3]; 0.5 mM) [%]
C[C@H](CC[C@@H](O)CCO)[C@H]1CC[C@H]2[C@@H]3[C@H](O)C[C@@H]4C[C@H](O)CC[C@]4(C)[C@H]3C[C@H](O)[C@]12C [Illustrative Example 2, 27-nor-(24R)-(+)-3α,7α,12α,24,26-pentahydroxy-5β-cholestane]	116.3 ± 4.86	80	95.3 ± 11.12	31	23	38	60	71	171 ± 4.7	145 ± 8.1	200 ± 3.5	3.62 ± 0.46	13.4 ± 2.38	51.5 ± 1.55	44.4 ± 4.51	–	–	–	–	–
C[C@H](CC[C@H](O)CCO)[C@H]1CC[C@H]2[C@@H]3[C@H](O)C[C@@H]4C[C@H](O)CC[C@]4(C)[C@H]3C[C@H](O)[C@]12C [Illustrative Example 3, 27-nor-(24S)-(+)-3α,7α,12α,24,26-pentahydroxy-5β-cholestane]	109.2 ± 4.77	80	97.2 ± 8.51	38	31	22	41	61	165 ± 6.6	141 ± 3.2	199 ± 2.6	3.81 ± 0.23	12.3 ± 3.55	50.3 ± 1.38	45.5 ± 2.66	–	–	–	–	–
C[C@H](CCCC(C)(O)CO)[C@H]1CC[C@H]2[C@@H]3[C@H](O)C[C@@H]4C[C@H](O)CC[C@]4(C)[C@H]3C[C@H](O)[C@]12C (stereo partly drawn) [Illustrative Example 4, 5β-cholestane-3α,7α,12α,25,26-pentol]	118.0 ± 5.11	70	119.0 ± 7.12	–	–	–	–	–	133 ± 5.4	144 ± 4.4	181 ± 2.5	3.93 ± 0.38	14.1 ± 2.11	42.5 ± 1.65	48.7 ± 2.53	27	25	41	42	49
CC(C)C(O)CC[C@@H](C)[C@H]1CC[C@H]2[C@@H]3[C@H](O)C[C@@H]4C[C@H](O)CC[C@]4(C)[C@H]3C[C@H](O)[C@]12C (stereo partly drawn) [Illustrative Example 5, 3α,7α,12α,24-tetrahydroxy-5β-cholestane]	110.5 ± 6.71	80	101.1 ± 7.8	–	–	–	–	–	170 ± 7.2	151 ± 4.6	185 ± 7.7	3.51 ± 0.65	13.8 ± 3.77	44.8 ± 3.62	49.9 ± 4.85	25	21	33	51	58
C[C@H](CCCO)[C@H]1CC[C@H]2[C@@H]3[C@H](O)C[C@@H]4C[C@H](O)CC[C@]4(C)[C@H]3C[C@H](O)[C@]12C [Illustrative Example 6, 3α,7α,12α,24-tetrahydroxy-5β-cholan]	115.4 ± 2.24	80	105.3 ± 6.84	–	–	–	–	–	159 ± 5.7	148 ± 8.4	187 ± 6.3	3.71 ± 0.48	12.4 ± 2.39	43.5 ± 3.26	47.7 ± 2.58	24	22	38	51	59
